This is an account of results in patent publication US4906661A, “Esters of aryloxypropanolamine derivatives” (E. I. Du Pont de Nemours and Company, priority 1989, dated 1990).

Test [1] has as its target β1 receptors, guinea pig right atria (Cavia porcellus, UniProt H0W3H1). Nature of the test: cell-based. Conditions: Table I; guinea pig right atria, vs isoproterenol; -log KB; read-out: PA2 Rt. Atria (converted). As for the experimental part: Each tissue was suspended between a fixed glass rod and a Statham Universal Transducer connected to a Beckman recorder. Atria were allowed to beat spontaneously under a loading tension of approximately 0.5 gm. Intrinsic depressant or stimulant activity was determined for each compound by progressively increasing concentrations in the tissue baths at 60-minute intervals. Tissues were not washed between increments. The maximum concentration showing little or no cardiodepressant activity was chosen for blockade experiments. Changes in rate in response to isoproterenol, a standard β-receptor agonist, were measured in the absence and presence of test compounds. Spiral strips of guinea pig trachea were suspended under 5 gm resting tension and incubated with phentolamine, tropolone and cocaine. Active tension was generated by addition of carbachol (3.0×10^-7 M) and decreases in tension in response to isoproterenol were quantitated. Cumulative concentration-response curves were produced with isoproterenol both before and after 60-minute incubation of test compounds with atria and trachea. […] The blocking potency of test compounds was estimated by computing pA2 values (-log KB) by the method of Furchgott, the Pharmacological Differentiation of Adrenergic Receptors, Ann. […] The degree of cardioselectivity was estimated from the ratio, KB trachea/KB atria (10^(pA2 atria-pA2 trachea)). A ratio greater than one indicates cardioselectivity. Test drugs were dissolved in distilled water and added to the bath (30 ml) in a volume of 10 or 100 μl.

Test [2] addresses β2 receptors, guinea pig trachea (Cavia porcellus, UniProt Q8K4Z4). Put plainly: cell-based. Conditions: Table I; guinea pig trachea, vs isoproterenol; -log KB; read-out: PA2 Trachea (converted). As for the experimental part: Each tissue was suspended between a fixed glass rod and a Statham Universal Transducer connected to a Beckman recorder. Atria were allowed to beat spontaneously under a loading tension of approximately 0.5 gm. Intrinsic depressant or stimulant activity was determined for each compound by progressively increasing concentrations in the tissue baths at 60-minute intervals. Tissues were not washed between increments. […] Changes in rate in response to isoproterenol, a standard β-receptor agonist, were measured in the absence and presence of test compounds. Spiral strips of guinea pig trachea were suspended under 5 gm resting tension and incubated with phentolamine, tropolone and cocaine. Active tension was generated by addition of carbachol (3.0×10^-7 M) and decreases in tension in response to isoproterenol were quantitated. Cumulative concentration-response curves were produced with isoproterenol both before and after 60-minute incubation of test compounds with atria and trachea. […] The blocking potency of test compounds was estimated by computing pA2 values (-log KB) by the method of Furchgott, the Pharmacological Differentiation of Adrenergic Receptors, Ann. […] A ratio greater than one indicates cardioselectivity. Test drugs were dissolved in distilled water and added to the bath (30 ml) in a volume of 10 or 100 μl.

Chain of β1 receptors, guinea pig right atria (H0W3H1 1-470): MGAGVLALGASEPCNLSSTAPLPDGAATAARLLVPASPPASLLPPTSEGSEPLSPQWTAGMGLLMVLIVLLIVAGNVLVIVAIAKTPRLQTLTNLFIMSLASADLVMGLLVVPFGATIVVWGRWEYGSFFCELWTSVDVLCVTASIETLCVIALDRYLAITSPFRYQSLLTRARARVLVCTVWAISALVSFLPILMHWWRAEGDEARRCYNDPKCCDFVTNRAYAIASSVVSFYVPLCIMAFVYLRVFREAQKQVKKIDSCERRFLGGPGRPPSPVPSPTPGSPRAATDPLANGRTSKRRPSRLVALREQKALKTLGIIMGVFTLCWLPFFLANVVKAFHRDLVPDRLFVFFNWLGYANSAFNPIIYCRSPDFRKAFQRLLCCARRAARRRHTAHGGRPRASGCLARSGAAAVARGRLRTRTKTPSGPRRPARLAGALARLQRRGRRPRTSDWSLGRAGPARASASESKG
Chain of β2 receptors, guinea pig trachea (Q8K4Z4 whole entry): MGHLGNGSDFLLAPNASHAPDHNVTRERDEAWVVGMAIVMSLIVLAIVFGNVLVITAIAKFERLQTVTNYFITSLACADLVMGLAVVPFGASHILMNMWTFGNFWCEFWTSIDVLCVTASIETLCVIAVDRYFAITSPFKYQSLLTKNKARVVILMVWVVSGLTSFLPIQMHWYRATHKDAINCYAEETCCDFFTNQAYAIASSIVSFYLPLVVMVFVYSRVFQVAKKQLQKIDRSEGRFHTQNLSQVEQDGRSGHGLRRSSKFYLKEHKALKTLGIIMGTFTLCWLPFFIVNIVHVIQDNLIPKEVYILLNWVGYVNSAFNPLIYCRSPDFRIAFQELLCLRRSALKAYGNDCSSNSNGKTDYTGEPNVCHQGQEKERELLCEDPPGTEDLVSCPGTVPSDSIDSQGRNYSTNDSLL

With `COC(=O)c1ccccc1OCC(O)CNCCNC(C)=O` (stereo not drawn) [Example I, Methyl 2-[2-Hydroxy-3-[N-2(-acetamidoethyl)amino]propoxy]benzoate], the Kb in test [1] was 0.0501 µM; in test [2], 0.1 µM.
In the case of `COC(=O)c1ccccc1OCC(O)CNCCNC(=O)Cc1ccccc1` (stereo not drawn) [III, Methyl 2-[2-Hydroxy-3-[N-[2-(phenylacetamido)ethyl]amino]propoxy]benzoate], the Kb in test [1] was 0.00501 µM; in test [2], 0.02 µM.
The corresponding values for `COC(=O)c1ccccc1OCC(O)CNCCNC(=O)C(C)C` (stereo not drawn) [II, Methyl 2-[2-Hydroxy-3-[N-[2-(2-methylpropionamido)ethyl]amino]propoxy]benzoate] are 0.00794 µM and 0.0316 µM.
